Reference: patent US20120035356A1, “Hydroxycarboxylic Acids and Salts” (priority 2006, published 2012)
Where two headings read alike, the source gives them in different places.

How the values were obtained:
[1] = cited from earlier work
[2] = Corrosion test NACE TM0169-95 modified by PNS, steel coupons in 3% NaCl solution; parameters: Percent Effectiveness: scale not given: direction of the effect not stated beside the values; conditions: Table 1; for Corrosion rate MPY: 72 h; for Percent Effectiveness: NaCl control 100%, water 0%, lower is better, 30% or less acceptable (PNS); for Corrected corrosion rate MPY^1: distilled water MPY subtracted
Description: Corrosion tests were performed according to the National Association of Corrosion Engineers (NACE) Standard TM0169-95 modified by the Pacific Northwest Snowfighters (PNS) (NACE TM0169-95).
The test procedure was modified to use 30 mL of a 3% solution of inhibitor per square inch of total coupon surface area. Stamped and numbered steel TSI coupons which met the ASTM F436 Type 1 requirement with a Rockwell hardness of C 38-45 were used for each corrosion test. Approximate coupon dimensions are 1.37 in. outer diameter, 0.60 in. inner diameter, and 0.10 in. thickness with a density of 7.85 grams per cubic centimeter. Coupons were placed in a sealed container on a rock tumbler with a non-abrasive cleanser for 30 minutes to remove surface grease and impurities. Coupons were wiped with acetone to remove any additional grease, rinsed with deionized water, and then acid etched with an 18.5% HCl solution for approximately 3 minutes. The coupons were rinsed with tap water, rinsed with deionized water, patted dry and placed in chloroform for 15 minutes. The coupons were removed from chloroform and allowed to air dry in a ventilated hood for 1 hour. Each coupon was then weighed to the nearest 0.1 mg. at least two times to ensure a consistent weight.
Distilled water was used to prepare each solution and control standard. Sodium chloride was used as the salt standard. A 3% solution of NaCl (EMD, analyzed reagent grade, 9.6 g) in distilled water (310.4 g) was prepared as a salt standard (w/v). Each test solution was prepared with 3% NaCl, 310.4 g distilled water, and a corrosion inhibitor. Two NaCl salt solutions containing each inhibitor were prepared at 3% and 1.5% inhibitor concentration (by weight of salt, 288 mg and 144 mg, respectively). Approximately 300 mL of each solution in distilled water was transferred to a clean 500 mL Erlenmeyer flask equipped with a rubber stopper which had been drilled to allow a thin line attached to a plastic rod to run through it. The pH of each solution was measured and recorded. Aqueous 5% sodium hydroxide was carefully added (1-2 drops) until a basic pH was established for each test solution. The pH of the NaCl and H2O control solutions was not altered. Three coupons were attached to a plastic bar suspended within each flask through the stopper hole. A timed device raised and lowered the test coupons so they were immersed in the test solution for 10 minutes of each hour for a 72 hour period. Tests were conducted at room temperature.
After the 72 h. test period, the coupons were quickly removed from solution, rinsed under tap water and vigorously rubbed to remove any surface corrosion material. The coupons were then placed in shallow evaporating dishes containing a cleaning solution of concentrated hydrochloric acid, stannous chloride (50 g/liter), and antimony chloride (20 g/liter) for 15 minutes. The coupons were removed from the acid solution, rinsed vigorously under tap water, and returned to the cleaning solution for an additional 15 minutes. The coupons were again removed from the acid solution, rinsed under tap water, rinsed under deionized water, patted dry, and placed in a vessel containing chloroform for 10 minutes. The coupons were removed from the chloroform and allowed to air dry under a ventilated hood for 1 hour before being weighed to the nearest 0.1 mg. Each coupon was weighed twice to ensure a true final weight. Corrosion rate in mils per year (MPY) was calculated from the measured weight loss of each coupon using the following equation: […]
The corrosion value for the control solution of distilled H2O was also calculated. The MPY value of the distilled water was subtracted from the MPY value of each sample solution containing 3% NaCl to provide a corrected MPY value, which is noted as MPY′.

Water solubility = type: physicochemical; conditions: at the higher pH
[3] = 1.5 weight % inhibitor in 3% NaCl, room temperature, >pH 8 except sodium D-gluconate (pH 6.1)
[4] = 1.5 weight % inhibitor in 3% NaCl
[5] = 3.0 weight % inhibitor in 3% NaCl, >pH 8 except sodium D-gluconate (pH 6.1) and commercial liquid gluconate product (pH 3.2)
[6] = 3.0 weight % inhibitor in 3% NaCl

| SMILES | water solubility (in words) [1] | Corrosion rate MPY [2, 3] | Percent Effectiveness [2, 4] | Corrected corrosion rate MPY^1 [2, 4] | Corrosion rate MPY [2, 5] | Percent Effectiveness [2, 6] | Corrected corrosion rate MPY^1 [2, 6] | water solubility (Water solubility) | other results |
| --- | --- | --- | --- | --- | --- | --- | --- | --- | --- |
| O=C(O)[C@@H](O)[C@@H](O)[C@H](O)[C@@H](O)C(=O)[O-].[K+] [Sample III, monopotassium D-glucarate] | – | – | – | – | – | – | – | – | water solubility [1]: about 10%; Water reduction (% of control) (Type A (water reducing) trial, admixture dose 2.4-2.5 oz/cwt): 5.04 % of control; Compressive Strength (% of control) (Type A trial, 7 days): (125%) % of control; Water reduction (% of control) (Type D (water reducing/set retarding) trial, admixture dose 2.9-5.0 oz/cwt): 5.04 % of control; Compressive Strength (% of control) (Type D trial, 7 days): (117%) % of control; Compressive Strength (% of control) (Type D trial, 28 days): (118%) % of control |
| O=C([O-])[C@@H](O)[C@@H](O)[C@H](O)[C@@H](O)C(=O)[O-].[Ca+2] [calcium D-glucarate] | very insoluble in water | – | – | – | – | – | – | – | – |
| O=C([O-])[C@@H](O)[C@@H](O)[C@H](O)[C@@H](O)C(=O)[O-].[K+].[K+] [dipotassium D-glucarate hydrate, dipotassium D-glucarate] | readily soluble in water | – | – | – | – | – | – | – | – |
| O=C([O-])[C@H](O)[C@@H](O)[C@H](O)[C@H](O)CO.[Na+] [sodium D-gluconate, reference compound] | – | 24.596 MPY | 36.98% | 20.313 MPY | 22.786 MPY | 33.45% | 18.503 MPY | ca. 60% | Percent Effectiveness ([2]; 3.0 weight % inhibitor in 3% NaCl, listed as gluconate): > 30% |
| O=C([O-])[C@@H](O)[C@@H](O)[C@H](O)[C@@H](O)C(=O)[O-].[K+].[Na+] [sodium potassium D-glucarate] | readily soluble in water | 23.726 MPY | 35.28% | 19.443 MPY | 20.939 MPY | 29.84% | 16.656 MPY | ca. 70% | Percent Effectiveness ([2]; 3.0 weight % inhibitor in 3% NaCl, listed as glucarate): ~30% |
